# Measurements from patent publication US11395479B2, “Method to reduce microbial bloom in poultry hatchery” (Novozymes A/S, priority 2016, dated 2022).
# Experiments:
# Format in all cases: in vivo, commercial broiler chicks
# Conditions in all cases: gut of DOH chicks, n = 12, ± Std Err
# thermotolerant spores = assay: Gut counts of day of hatch chicks: thermotolerant spores on TSA
# Description: Guts from chicks treated with either the bacterial formulation of example 3 or formaldehyde were tested for thermotolerant spores, presumptive Lactic Acid Bacteria (LAB) and Gram-negative bacteria.
# Directly prior to chick removal from the hatchers twelve birds per treatment group were removed from the hatcher. Birds were transported (˜1 h) to an appropriate research facility and humanely euthanized by CO2 asphyxiation. Gut packs containing duodenum, ileum, and ceca were aseptically removed and separately homogenized. Gut samples were diluted in sterile saline at a 1:4 wt/vol rate. Ten-fold dilutions were made by placing 200 μl of the sample (N) into the first row of a sterile 96-well plate and sequentially diluting by transferring 20 μl to 180 μl sterile saline to the 10^−7 dilution. The dilutions (N to 10^−7) were plated by 10 μl drop onto both MRS agar and MacConkey's agar. For Trypticase soy agar (TSA) plating, the gut samples were Pasteurized at 80° C. for 10 min before transferring 200 μl into a 96 well plate. The rest of the dilutions and plating methods were the same as the MRS and MacConkey's agar. Agar plates were counted after 24 h of incubation at 37° C.
# [1] = system: presumptive Lactic Acid Bacteria (LAB); assay: Gut counts of day of hatch chicks: presumptive LAB on MRS agar
# Gram-negative bacteria = assay: Gut counts of day of hatch chicks: Gram-negative bacteria on MacConkey's agar
structure (smiles),measurement,setting,value
C=O [Formaldehyde],"thermotolerant spore counts, TSA, Exp 1","thermotolerant spores; Exp 1, samples not pasteurized",8.95 ± 0.2 Log10 CFU/g
same,"thermotolerant spore counts, TSA, Exp 2","thermotolerant spores; Exp 2, pasteurized",1.34 ± 0.48 Log10 CFU/g
same,"thermotolerant spore counts, TSA, Exp 3","thermotolerant spores; Exp 3, pasteurized",0.69 ± 0.36 Log10 CFU/g
same,"thermotolerant spore counts, TSA, Exp 4","thermotolerant spores; Exp 4, pasteurized",0.44 ± 0.3 Log10 CFU/g
same,"thermotolerant spore counts, TSA, Exp 5","thermotolerant spores; Exp 5, pasteurized",0 ± 0 Log10 CFU/g
same,"presumptive Lactic Acid bacteria counts, MRS agar, Exp 1",[1]; Exp 1,7.79 ± 0.17 Log10 CFU/g
same,"presumptive Lactic Acid bacteria counts, MRS agar, Exp 2",[1]; Exp 2,7.26 ± 0.34 Log10 CFU/g
same,"presumptive Lactic Acid bacteria counts, MRS agar, Exp 3",[1]; Exp 3,6.26 ± 0.83 Log10 CFU/g
same,"presumptive Lactic Acid bacteria counts, MRS agar, Exp 4",[1]; Exp 4,5.1 ± 0.99 Log10 CFU/g
same,"presumptive Lactic Acid bacteria counts, MRS agar, Exp 5",[1]; Exp 5,2.85 ± 0.96 Log10 CFU/g
same,"presumptive Gram-negative bacteria counts, MacConkey's agar, Exp 1",Gram-negative bacteria; Exp 1,8.39 ± 0.19 Log10 CFU/g
same,"presumptive Gram-negative bacteria counts, MacConkey's agar, Exp 2",Gram-negative bacteria; Exp 2,6.56 ± 0.83 Log10 CFU/g
same,"presumptive Gram-negative bacteria counts, MacConkey's agar, Exp 3",Gram-negative bacteria; Exp 3,3.9 ± 0.93 Log10 CFU/g
same,"presumptive Gram-negative bacteria counts, MacConkey's agar, Exp 4",Gram-negative bacteria; Exp 4,4.95 ± 0.99 Log10 CFU/g
same,"presumptive Gram-negative bacteria counts, MacConkey's agar, Exp 5",Gram-negative bacteria; Exp 5,2.84 ± 0.92 Log10 CFU/g
